The target in assay [1] is Carbonic anhydrase 2 (Homo sapiens, UniProt P00918).
Description: Inhibitory activity against human recombinant carbonic anhydrase II (CA2)
Assay [2] has as its target Carbonic anhydrase 1 (Homo sapiens, UniProt P00915).
Description: Inhibitory activity against human recombinant carbonic anhydrase I (CA1)
Assay [3] addresses T1, Carbonic anhydrase 4 (Bos taurus, UniProt Q95323).
T1 sequence (Q95323 whole entry): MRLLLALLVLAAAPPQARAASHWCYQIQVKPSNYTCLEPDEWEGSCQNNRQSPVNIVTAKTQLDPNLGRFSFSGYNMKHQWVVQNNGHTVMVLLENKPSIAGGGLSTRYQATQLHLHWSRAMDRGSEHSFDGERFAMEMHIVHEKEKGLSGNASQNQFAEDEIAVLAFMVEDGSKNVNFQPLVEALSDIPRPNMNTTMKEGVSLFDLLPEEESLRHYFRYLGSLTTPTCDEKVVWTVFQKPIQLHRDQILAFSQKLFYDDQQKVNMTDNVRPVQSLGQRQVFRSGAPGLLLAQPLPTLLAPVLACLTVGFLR
Description: Inhibitory activity against bovine carbonic anhydrase IV (CA4), obtained from bovine lung microsomes

pKi: −log10 of the molar value.

Carbonic anhydrase 1, sequence (P00915 whole entry): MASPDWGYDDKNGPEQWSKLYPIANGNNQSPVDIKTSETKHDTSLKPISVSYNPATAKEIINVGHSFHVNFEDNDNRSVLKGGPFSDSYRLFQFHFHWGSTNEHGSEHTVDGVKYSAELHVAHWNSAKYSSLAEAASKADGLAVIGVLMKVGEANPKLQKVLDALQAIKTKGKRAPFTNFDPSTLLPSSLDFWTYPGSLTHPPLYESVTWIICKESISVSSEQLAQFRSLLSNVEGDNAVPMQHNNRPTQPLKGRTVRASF

Turning to `C[C@H](CCC(=O)Nc1ccc(S(N)(=O)=O)cc1)[C@H]1CC[C@H]2[C@@H]3C(=O)C[C@@H]4CC(=O)CC[C@]4(C)[C@H]3CC(=O)[C@]12C`, the pKi is 7.15 in assay [1], 5.43 in assay [2] and 6.83 in assay [3].

As for `C[C@H](CCC(=O)Nc1ccc(S(N)(=O)=O)cc1Cl)[C@H]1CC[C@H]2[C@@H]3C(=O)C[C@@H]4CC(=O)CC[C@]4(C)[C@H]3CC(=O)[C@]12C`, the pKi in assay [1] was 7.89; in assay [2] it was 6.70; in assay [3] it was 7.52.

Turning to `C[C@H](CCC(=O)Oc1ccc2nc(S(N)(=O)=O)sc2c1)[C@H]1CC[C@H]2[C@@H]3[C@H](O)C[C@@H]4C[C@H](O)CC[C@]4(C)[C@H]3C[C@H](O)[C@]12C`, the pKi is 8.40 in assay [1], 7.49 in assay [2] and 8.05 in assay [3].

For the molecule `C[C@H](CCC(=O)Nc1ccc(S(N)(=O)=O)cc1I)[C@H]1CC[C@H]2[C@@H]3C(=O)C[C@@H]4CC(=O)CC[C@]4(C)[C@H]3CC(=O)[C@]12C`, the pKi in assay [1] is 8.00; in assay [2] it was 7.21; in assay [3], 7.72.

As to `C[C@H](CCC(=O)Oc1ccc2nc(S(N)(=O)=O)sc2c1)[C@H]1CC[C@H]2[C@@H]3CC[C@@H]4C[C@H](O)CC[C@]4(C)[C@H]3C[C@H](O)[C@]12C`, the pKi is 8.32 in assay [1], 7.41 in assay [2] and 8.05 in assay [3].

For the molecule `C[C@H](CCC(=O)Nc1nnc(S(N)(=O)=O)s1)[C@H]1CC[C@H]2[C@@H]3[C@H](O)C[C@@H]4C[C@H](O)CC[C@]4(C)[C@H]3CC[C@]12C`, the pKi in assay [1] was 7.28; in assay [2], 6.39; in assay [3], 6.62.

For `C[C@H](CCC(=O)Nc1ccc(S(N)(=O)=O)cc1Cl)[C@H]1CC[C@H]2[C@@H]3[C@H](O)C[C@@H]4C[C@H](O)CC[C@]4(C)[C@H]3C[C@H](O)[C@]12C`, the pKi in assay [1] was 7.09; in assay [2], 6.01; in assay [3] it was 6.77.

Turning to `C[C@H](CCC(=O)Nc1nnc(S(N)(=O)=O)s1)[C@H]1CC[C@H]2[C@@H]3CC[C@@H]4C[C@H](O)CC[C@]4(C)[C@H]3CC[C@]12C`, the results for the pKi in assay [1], in assay [2] and in assay [3] were 8.00, 6.68 and 7.55, respectively.

In the case of `C[C@H](CCC(=O)Nc1ccc(S(N)(=O)=O)cc1Br)[C@H]1CC[C@H]2[C@@H]3CC[C@@H]4C[C@H](O)CC[C@]4(C)[C@H]3C[C@H](O)[C@]12C`, the values for the pKi in assay [1], in assay [2] and in assay [3] were 7.51, 6.44 and 7.30, respectively.

In the case of `C[C@H](CCC(=O)Nc1ccc(S(N)(=O)=O)cc1Cl)[C@H]1CC[C@H]2[C@@H]3CC[C@@H]4C[C@H](O)CC[C@]4(C)[C@H]3CC[C@]12C`, the pKi in assay [1] was 7.33; in assay [2], 6.14; in assay [3] it was 7.27.

`C[C@H](CCC(=O)Nc1cc(Cl)c(S(N)(=O)=O)cc1S(N)(=O)=O)[C@H]1CC[C@H]2[C@@H]3C(=O)C[C@@H]4CC(=O)CC[C@]4(C)[C@H]3CC(=O)[C@]12C`: the values for the pKi in assay [1], in assay [2] and in assay [3] were 7.96, 7.11 and 7.30, respectively.

On to `C[C@H](CCC(=O)Nc1cccc(S(N)(=O)=O)c1)[C@H]1CC[C@H]2[C@@H]3[C@H](O)C[C@@H]4C[C@H](O)CC[C@]4(C)[C@H]3C[C@H](O)[C@]12C`, for which the figures for the pKi in assay [1], in assay [2] and in assay [3] were 6.66, 4.64 and 5.87, respectively.

Consider `C[C@H](CCC(=O)Nc1c(S(N)(=O)=O)cc(S(N)(=O)=O)c(Cl)c1Cl)[C@H]1CC[C@H]2[C@@H]3[C@@H](O)C[C@@H]4C[C@H](O)CC[C@]4(C)[C@H]3CC[C@]12C`, for which the pKi in assay [1] is 8.00; in assay [2] it was 7.23; in assay [3], 7.54.

As to `C[C@H](CCC(=O)OCCOc1ccc2nc(S(N)(=O)=O)sc2c1)[C@H]1CC[C@H]2[C@@H]3CC[C@@H]4C[C@H](O)CC[C@]4(C)[C@H]3CC[C@]12C`, the pKi in assay [1] is 8.85; in assay [2], 7.44; in assay [3] it was 8.10.

With `C[C@H](CCC(=O)Nc1nnc(S(N)(=O)=O)s1)[C@H]1CC[C@H]2[C@@H]3CC[C@@H]4C[C@H](O)CC[C@]4(C)[C@H]3C[C@H](O)[C@]12C`, the pKi in assay [1] was 7.30; in assay [2], 6.70; in assay [3], 6.89.

For `C[C@H](CCC(=O)/N=c1\sc(S(N)(=O)=O)nn1C)[C@H]1CC[C@H]2[C@@H]3CC[C@@H]4C[C@H](O)CC[C@]4(C)[C@H]3CC[C@]12C`, the pKi in assay [1] was 8.10; in assay [2] it was 6.69; in assay [3], 7.68.

Take `C[C@H](CCC(=O)Nc1nnc(S(N)(=O)=O)s1)[C@H]1CC[C@H]2[C@@H]3[C@@H](O)C[C@@H]4C[C@H](O)CC[C@]4(C)[C@H]3CC[C@]12C`: the values for the pKi in assay [1], in assay [2] and in assay [3] were 9.05, 7.32 and 7.80, respectively.

`C[C@H](CCC(=O)NCCc1ccc(S(N)(=O)=O)cc1)[C@H]1CC[C@H]2[C@@H]3[C@@H](O)C[C@@H]4C[C@H](O)CC[C@]4(C)[C@H]3CC[C@]12C`: the pKi was 7.85 in assay [1], 6.53 in assay [2] and 7.47 in assay [3].

As for `C[C@H](CCC(=O)Nc1ccc(S(N)(=O)=O)cc1I)[C@H]1CC[C@H]2[C@@H]3[C@H](O)C[C@@H]4C[C@H](O)CC[C@]4(C)[C@H]3C[C@H](O)[C@]12C`, the pKi in assay [1] was 7.28; in assay [2], 6.29; in assay [3], 6.98.

`C[C@H](CCC(=O)Nc1cccc(S(N)(=O)=O)c1)[C@H]1CC[C@H]2[C@@H]3CC[C@@H]4C[C@H](O)CC[C@]4(C)[C@H]3C[C@H](O)[C@]12C`: the results for the negative-log Ki (pKi) in assay [1], in assay [2] and in assay [3] were 6.64, 4.90 and 6.01, respectively.

Take `C[C@H](CCC(=O)Nc1nnc(S(N)(=O)=O)s1)[C@H]1CC[C@H]2[C@@H]3[C@H](O)C[C@@H]4C[C@H](O)CC[C@]4(C)[C@H]3C[C@H](O)[C@]12C`: the pKi in assay [1] is 7.30; in assay [2] it was 6.38; in assay [3] it was 6.69.

Turning to `C[C@H](CCC(=O)NNc1ccc(S(N)(=O)=O)cc1)[C@H]1CC[C@H]2[C@@H]3[C@H](O)C[C@@H]4C[C@H](O)CC[C@]4(C)[C@H]3CC[C@]12C`, the negative logarithm of the Ki (pKi) in assay [1] was 6.53; in assay [2], 4.56; in assay [3] it was 6.07.

Regarding `C[C@H](CCC(=O)NCc1ccc(S(N)(=O)=O)cc1)[C@H]1CC[C@H]2[C@@H]3C(=O)C[C@@H]4CC(=O)CC[C@]4(C)[C@H]3CC(=O)[C@]12C`, the pKi is 7.59 in assay [1], 6.22 in assay [2] and 7.40 in assay [3].

In the case of `C[C@H](CCC(=O)NNc1ccc(S(N)(=O)=O)cc1)[C@H]1CC[C@H]2[C@@H]3CC[C@@H]4C[C@H](O)CC[C@]4(C)[C@H]3CC[C@]12C`, the pKi was 6.55 in assay [1], 4.82 in assay [2] and 6.19 in assay [3].

For `C[C@H](CCC(=O)Nc1c(S(N)(=O)=O)cc(S(N)(=O)=O)c(Cl)c1Cl)[C@H]1CC[C@H]2[C@@H]3[C@H](O)C[C@@H]4C[C@H](O)CC[C@]4(C)[C@H]3C[C@H](O)[C@]12C`, the results for the pKi in assay [1], in assay [2] and in assay [3] were 7.68, 6.40 and 7.01, respectively.

Regarding `C[C@H](CCC(=O)OCCOc1ccc2nc(S(N)(=O)=O)sc2c1)[C@H]1CC[C@H]2[C@@H]3[C@H](O)C[C@@H]4C[C@H](O)CC[C@]4(C)[C@H]3CC[C@]12C`, the pKi is 8.28 in assay [1], 7.36 in assay [2] and 8.05 in assay [3].

In the case of `C[C@H](CCC(=O)Nc1cccc(S(N)(=O)=O)c1)[C@H]1CC[C@H]2[C@@H]3[C@@H](O)C[C@@H]4C[C@H](O)CC[C@]4(C)[C@H]3CC[C@]12C`, the pKi in assay [1] was 6.80; in assay [2] it was 5.15; in assay [3], 6.32.

Regarding `C[C@H](CCC(=O)Nc1ccc2nc(S(N)(=O)=O)sc2c1)[C@H]1CC[C@H]2[C@@H]3CC[C@@H]4C[C@H](O)CC[C@]4(C)[C@H]3CC[C@]12C`, the pKi is 8.55 in assay [1], 7.32 in assay [2] and 8.05 in assay [3].

With `C[C@H](CCC(=O)Nc1cccc(S(N)(=O)=O)c1)[C@H]1CC[C@H]2[C@@H]3CC[C@@H]4C[C@H](O)CC[C@]4(C)[C@H]3CC[C@]12C`, the pKi in assay [1] was 6.68; in assay [2], 5.02; in assay [3], 6.13.

Regarding `C[C@H](CCC(=O)Nc1ccc2nc(S(N)(=O)=O)sc2c1)[C@H]1CC[C@H]2[C@@H]3CC[C@@H]4C[C@H](O)CC[C@]4(C)[C@H]3C[C@H](O)[C@]12C`, the results for the negative logarithm of the Ki (pKi) in assay [1], in assay [2] and in assay [3] were 8.19, 7.25 and 7.92, respectively.

On to `C[C@H](CCC(=O)NCCc1ccc(S(N)(=O)=O)cc1)[C@H]1CC[C@H]2[C@@H]3CC[C@@H]4C[C@H](O)CC[C@]4(C)[C@H]3CC[C@]12C`, for which the pKi in assay [1] is 7.39; in assay [2], 6.19; in assay [3] it was 7.15.

In the case of `C[C@H](CCC(=O)OCc1ccc(S(N)(=O)=O)cc1)[C@H]1CC[C@H]2[C@@H]3[C@@H](O)C[C@@H]4C[C@H](O)CC[C@]4(C)[C@H]3CC[C@]12C`, the pKi was 7.12 in assay [1], 6.30 in assay [2] and 6.61 in assay [3].

Broadly, the pKi is −log10 of the Ki, conventionally taken in molar units.

Source of the values: ChEMBL document CHEMBL1135136, “Carbonic anhydrase inhibitors. Preparation of potent sulfonamides inhibitors incorporating bile acid tails” (Bioorg Med Chem Lett, 2002).
